Measured values published in patent US6403622B1, “Phenylacetic acid heterocyclyl amides having an insecticidal effect” (Bayer Aktiengesellschaft, priority 1998, dated 2002).
Where two headings read alike, the source gives them in different places.

Columns and labels:
[1] = log p determination; type: physicochemical
[2] = tested on: larvae of the mustard beetle (Phaedon cochleariae); assay: Phaedon larvae test; type: in vivo; settings: 168 h, concentration of active compound 0.1 %, cabbage leaves dipped, after 7 d, read-out: Kill rate in % after 7 d
Procedure: Solvent: 7 parts by weight of dimethylformamide Emulsifier: 1 part by weight of alkylaryl polyglycol ether To produce a suitable preparation of active compound, 1 part by weight of active compound is mixed with the stated amount of solvent and the stated amount of emulsifier, and the concentrate is diluted with water to the desired concentration. Cabbage leaves (Brassica oleracea) are treated by being dipped into the preparation of active compound and are populated with larvae of the mustard beetle (Phaedon cochleariae) while the leaves are still moist.

[3] = tested on: Podosphaera leucotricha; assay: Podosphaera test (apple) / protective; type: in vivo; settings: application rate 100 g/ha, evaluation 10 days after inoculation
Procedure: (§1) Solvent: 47 parts by weight of acetone
(§2) Emulsifier: 3 parts by weight of alkylaryl polyglycol ether
(§3) To produce a suitable preparation of active compound, 1 part by weight of active compound is mixed with the stated amounts of solvent and emulsifier, and the concentrate is diluted with water to the desired concentration.
To test for protective activity, young plants are sprayed with the preparation of active compound at the stated application rate. After the spray coating has dried on, the plants are inoculated with an aqueous spore suspension of the causative organism of apple mildew Podosphaera leucotricha. The plants are then placed in a greenhouse at about 23° C. and a relative atmospheric humidity of about 70%.
Evaluation is carried out 10 days after the inoculation. 0% means an efficacy which corresponds to that of the control, whereas an efficacy of 100% means that no infection is observed.

[4] = tested on: Plasmopara vilicola; assay: Plasmopara test (grapevine) / protective; type: in vivo; settings: 144 h, application rate 100 g/ha, evaluation 6 days after inoculation, read-out: Efficacy in %
Procedure: as §1, §2, §3
To test for the protective activity, young plants are sprayed with the preparation of active compound at the stated application rate. After the spray coating has dried on, the plants are inoculated with an aqueous spore suspension of Plasmopara vilicola and then remain in an incubation cabin at about 20° C. and 100% relative atmospheric humidity for 1 day. The plants are then placed in a greenhouse at about 21° C. and about 90% relative atmospheric humidity for 5 days. The plants are then moistened and placed in an incubation cabin for 1 day.
Evaluation is carried out 6 days after the inoculation. 0% means an efficacy which corresponds to that of the control, whereas an efficacy of 100% means that no infection is observed.

[5] = tested on: caterpillars of the army worm Spodoptera frugiperda; assay: Spodoptera frugiperda test; type: in vivo; settings: concentration of active compound 0.1 %, cabbage leaves dipped
Procedure: (§4) Solvent: 7 parts by weight of dimethylformamide
(§5) Emulsifier: 1 part by weight of alkylaryl polyglycol ether
(§6) To produce a suitable preparation of active compound, 1 part by weight of active compound is mixed with the stated amount of solvent and the stated amount of emulsifier, and the concentrate is diluted with water to the desired concentration.
Cabbage leaves (Brassica oleracea) are treated by being dipped into the preparation of active compound of the desired concentration and are populated with caterpillars of the army worm Spodoptera frugiperda while the leaves are still moist.
After the desired period of time, the effect in % is determined. 100% means that all caterpillars have been killed; 0% means that none of the caterpillars have been killed.

[6] = tested on: Erysiphe graminis f.sp. tritici; assay: Erysiphe test (wheat) / protective; type: in vivo; settings: evaluation 7 days after inoculation
Procedure: Solvent: 25 parts by weight of N,N-dimethylacetamide
Emulsifier: 0.6 part by weight of alkylaryl polyglycol ether
as §3
To test for protective activity, young plants are sprayed with the preparation of active compound at the stated application rate.
After the spray coating has dried on, the plants are dusted with spores von Erysiphe graminis f.sp. tritici.
The plants are placed in a greenhouse at a temperature of about 20° C. and a relative atmospheric humidity of about 80% to promote the development of mildew pustules.
Evaluation is carried out 7 days after the inoculation. 0% means an efficacy which corresponds to that of the control, whereas an efficacy of 100% means that no infection is observed.

[7] = tested on: larvae of the green rice leafhopper (Nephotettix cincticeps); assay: Nephotettix test; type: in vivo; settings: concentration of active compound 0.1 %, rice seedlings dipped
Procedure: as §4, §5, §6
Rice seedlings (Oryza sativa) are treated by being dipped into the preparation of active compound of the desired concentration and are populated with larvae of the green rice leafhopper (Nephotettix cincticeps) while the seedlings are still moist.
After the desired period of time, the kill in % is determined. 100% means that all leaf hoppers have been killed; 0% means that none of the leaf hoppers have been killed.

[8] = tested on: greenhouse red spider mite (Tetranychus urticae); assay: Tetranychus test (OP-resistant/dip treatment); type: in vivo; settings: concentration of active compound 0.01 %, bean plants dipped, OP-resistant
Procedure: as §4, §5
To produce a suitable preparation of active compound, 1 part by weight of active compound is mixed with the stated amount of solvent and the stated amount of emulsifier, and the concentrate is diluted with emulsifier-containing water to the desired concentrations.
Bean plants (Phaseolus vulgaris) which are heavily infested by all stages of the greenhouse red spider mite (Tetranychus urticae) are dipped into a preparation of active compound of the desired concentration.
After the desired period of time, the effect in % is determined. 100% means that all spider mites have been killed; 0% means that none of the spider mites have been killed.

[9] = acidic, isomer mixtures, the higher log p value is stated, Table 13, read-out: log p (acidic)
[10] = pH 2.3, pH 2.3, for Example 1 two values for the two isomers, read-out: log p (pH 2.3)

logP [1, 9]	logP [1, 10]	SMILES	pest or weed control at 0.1 % [2] [%]	Efficacy in % [3] [%]	pest or weed control at 100 g/ha [4] [%]	further results
4.82	–	Cc1nsc(NC(=O)Cc2ccc(C3(C)OCC(c4ccc(Cl)c(Cl)c4)O3)cc2)c1Cl (centres unmarked) [Example 16]	100	–	–	–
–	5.84	CCCCCCCCC1COC(C)(c2ccc(CC(=O)Nc3snc(C)c3Cl)cc2)O1 (centres unmarked) [Example 1]	100	–	–	log p (pH 2.3) ([1]; pH 2.3, for Example 1 two values for the two isomers): 6.05
3.23	–	CCC1COC(C)(c2ccc(CC(=O)Nc3snc(C)c3Cl)cc2)O1 (centres unmarked) [Example 7]	100	97	100	Kill rate in % after 7 d [5]: 100%; Efficacy in % ([6]; application rate 1000 g/ha): 81%; Kill rate in % after 6 d [7]: 100%
–	1.56	CC(=O)c1cccc(CC(=O)Nc2nc(C)ns2)c1 [Example 29, 5-[3(-acetylphenyl)acetaminol]-3-methyl-1,2,4-thiadiazole]	–	–	–	melting point: 91 to 98 °C
–	2.12	CC(=O)c1ccc(CC(=O)Nc2snc(C)c2Cl)cc1	–	–	–	–
4.35	–	Cc1nsc(NC(=O)Cc2ccc(C3(C)OCC(c4ccc(Cl)cc4)O3)cc2)c1Cl (centres unmarked) [Example 17]	100	99	97	Kill rate in % after 7 d [5]: 100%
3.83	–	Cc1nsc(NC(=O)Cc2ccc(C3(C)OCC(c4ccccc4)O3)cc2)c1Cl (centres unmarked) [Example 3]	100	99	99	Kill rate in % after 7 d [8]: 100%
3.23	–	C=CCOCC1COC(C)(c2ccc(CC(=O)Nc3snc(C)c3Cl)cc2)O1 (centres unmarked) [Example 4]	–	–	100	Kill rate in % after 7 d [8]: 100%
4.24	–	Cc1nsc(NC(=O)Cc2ccc(C3(C)OCC(COc4ccc(Cl)cc4)O3)cc2)c1Cl (centres unmarked) [Example 9]	100	97	100	–
3.09	–	Cc1nsc(NC(=O)Cc2ccc(C3(C)OCC(CCl)O3)cc2)c1Cl (centres unmarked) [Example 6]	100	–	100	Kill rate in % after 6 d [7]: 100%
–	1.87	CCc1nsc(NC(=O)Cc2cccc(C(C)=O)c2)n1 [Example 30]	–	–	–	melting point: 121 to 125 °C
4.21	–	Cc1nsc(NC(=O)Cc2ccc(C3(C)OCC(CBr)(CBr)CO3)cc2)c1Cl [Example 20]	–	–	96	Kill rate in % after 7 d [5]: 100%; Kill rate in % after 6 d [7]: 100%
–	2.14	CC(=O)c1cccc(CC(=O)Nc2snc(C)c2Cl)c1 [Example 31, 5-[3-(acetylphenyl)-acetaminol]-4-chloro-3-methyl-isothiazole]	–	–	–	melting point: 77 to 83 °C
4.4	–	CC=CCCCC1COC(C)(c2ccc(CC(=O)Nc3snc(C)c3Cl)cc2)O1 (centres unmarked) [Example 8]	100	95	97	Kill rate in % after 7 d [8]: 100%; Kill rate in % after 7 d [5]: 100%; Efficacy in % ([6]; application rate 500 g/ha): 81%
4	–	Cc1nsc(NC(=O)Cc2ccc(C3(C)OCC(C(C)(C)C)O3)cc2)c1Cl (centres unmarked) [Example 5]	–	–	–	Kill rate in % after 7 d [8]: 100%; Kill rate in % after 6 d [7]: 100%
4.32	–	Cc1nsc(NC(=O)Cc2ccc(C3(C)OCC(c4cccc(Cl)c4)O3)cc2)c1Cl (centres unmarked) [Example 15]	–	–	97	–
